Values quoted from earlier work in patent publication US20070105927A1, “Amorphous rizatriptan benzoate” (Glenmark Pharmaceuticals Limited, priority 2005, published 2007).

Tests used:
[1] = in vivo
5-HTIF receptor subtype = biological target: T1, 5-HTIF receptor subtype (Homo sapiens, UniProt P30939)
T1 sequence (P30939 1-366): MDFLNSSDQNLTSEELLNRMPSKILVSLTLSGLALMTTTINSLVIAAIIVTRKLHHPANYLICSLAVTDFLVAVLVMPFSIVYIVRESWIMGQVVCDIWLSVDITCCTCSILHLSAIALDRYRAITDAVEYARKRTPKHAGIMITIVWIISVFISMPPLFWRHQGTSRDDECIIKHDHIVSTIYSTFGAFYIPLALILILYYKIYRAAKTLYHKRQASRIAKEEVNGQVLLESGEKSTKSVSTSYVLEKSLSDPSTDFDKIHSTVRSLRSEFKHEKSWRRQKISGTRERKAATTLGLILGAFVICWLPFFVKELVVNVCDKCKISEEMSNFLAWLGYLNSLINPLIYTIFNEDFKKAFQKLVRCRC

[2] = biological target: human cloned 5-HT1B receptors (Homo sapiens, UniProt P28222); details: human cloned receptor
human cloned 5-HT1B receptors, sequence (P28222 whole entry): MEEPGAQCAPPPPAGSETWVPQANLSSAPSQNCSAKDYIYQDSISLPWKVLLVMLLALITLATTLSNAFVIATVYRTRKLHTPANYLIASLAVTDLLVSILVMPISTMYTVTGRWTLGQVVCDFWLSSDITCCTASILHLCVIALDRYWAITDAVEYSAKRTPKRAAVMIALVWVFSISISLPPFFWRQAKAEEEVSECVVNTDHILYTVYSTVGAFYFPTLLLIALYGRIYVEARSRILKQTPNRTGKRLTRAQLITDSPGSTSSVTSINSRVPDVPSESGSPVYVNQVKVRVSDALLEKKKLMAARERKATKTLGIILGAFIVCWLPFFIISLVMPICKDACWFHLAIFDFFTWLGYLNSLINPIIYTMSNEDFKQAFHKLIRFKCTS

[3] = tested on: beta-adrenergic receptors
5-HT1A receptor subtype = biological target: T2, 5-HT1A receptor subtype (Homo sapiens, UniProt P08908)
T2 sequence (P08908 1-422): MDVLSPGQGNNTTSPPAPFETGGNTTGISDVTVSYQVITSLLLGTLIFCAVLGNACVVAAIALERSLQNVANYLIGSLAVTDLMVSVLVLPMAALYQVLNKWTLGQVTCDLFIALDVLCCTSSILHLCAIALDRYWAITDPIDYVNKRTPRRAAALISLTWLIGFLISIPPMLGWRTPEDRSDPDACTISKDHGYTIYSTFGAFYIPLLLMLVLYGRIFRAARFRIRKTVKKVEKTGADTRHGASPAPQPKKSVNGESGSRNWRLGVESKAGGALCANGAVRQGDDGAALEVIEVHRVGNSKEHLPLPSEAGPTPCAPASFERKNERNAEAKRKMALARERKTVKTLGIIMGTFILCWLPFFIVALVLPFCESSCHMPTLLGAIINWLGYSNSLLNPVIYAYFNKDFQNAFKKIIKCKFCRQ

[4] = tested on: alpha-adrenergic receptors
5-HTIE receptor subtype = 5-HTIE receptor subtype (Homo sapiens, UniProt P28566)
5-HTIE receptor subtype, sequence (P28566 whole entry): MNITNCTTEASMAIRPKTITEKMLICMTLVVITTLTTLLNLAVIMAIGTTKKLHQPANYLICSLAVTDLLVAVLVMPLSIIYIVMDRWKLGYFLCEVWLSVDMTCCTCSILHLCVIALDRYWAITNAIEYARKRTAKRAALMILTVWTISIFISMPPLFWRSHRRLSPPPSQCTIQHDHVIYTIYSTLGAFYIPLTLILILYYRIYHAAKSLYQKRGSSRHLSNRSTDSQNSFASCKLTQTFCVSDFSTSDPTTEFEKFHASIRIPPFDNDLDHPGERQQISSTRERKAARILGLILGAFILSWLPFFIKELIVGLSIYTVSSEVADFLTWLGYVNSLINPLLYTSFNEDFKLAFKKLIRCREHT

[5] = biological target: human cloned 5-HT1D receptors (Homo sapiens, UniProt P28221); details: human cloned receptor
human cloned 5-HT1D receptors, sequence (P28221 whole entry): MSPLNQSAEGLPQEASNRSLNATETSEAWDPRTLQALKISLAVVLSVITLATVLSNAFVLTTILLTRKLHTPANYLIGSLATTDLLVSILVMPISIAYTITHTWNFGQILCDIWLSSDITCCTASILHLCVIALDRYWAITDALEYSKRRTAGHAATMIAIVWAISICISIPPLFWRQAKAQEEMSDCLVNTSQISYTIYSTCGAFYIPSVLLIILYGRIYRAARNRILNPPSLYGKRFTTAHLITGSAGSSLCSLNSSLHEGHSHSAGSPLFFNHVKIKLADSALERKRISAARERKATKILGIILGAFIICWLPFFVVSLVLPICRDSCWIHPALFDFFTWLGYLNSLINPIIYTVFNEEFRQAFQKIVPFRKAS

5-HT7 receptor = 5-HT7 receptor (Homo sapiens, UniProt P34969)
5-HT7 receptor, sequence (P34969 whole entry): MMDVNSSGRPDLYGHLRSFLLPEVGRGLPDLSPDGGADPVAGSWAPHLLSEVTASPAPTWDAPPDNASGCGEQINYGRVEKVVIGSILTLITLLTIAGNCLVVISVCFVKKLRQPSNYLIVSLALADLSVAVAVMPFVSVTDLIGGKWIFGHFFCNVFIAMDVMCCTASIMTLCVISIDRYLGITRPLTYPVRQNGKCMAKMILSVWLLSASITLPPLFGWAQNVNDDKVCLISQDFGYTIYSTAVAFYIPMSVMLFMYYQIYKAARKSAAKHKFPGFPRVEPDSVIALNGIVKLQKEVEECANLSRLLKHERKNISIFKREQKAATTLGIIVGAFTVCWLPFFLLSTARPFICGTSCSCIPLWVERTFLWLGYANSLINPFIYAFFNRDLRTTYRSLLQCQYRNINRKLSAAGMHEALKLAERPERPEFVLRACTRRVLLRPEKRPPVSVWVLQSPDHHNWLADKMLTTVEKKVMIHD

| affinity for 5-HTIF receptor subtype (5-HTIF receptor subtype) | activity at muscarinic receptors (muscarinic receptors) | affinity for 5-HT1B receptors [2] | activity at 5-HT3 receptors (5-HT3 receptors) | activity at beta-adrenergic receptors [3] | affinity for 5-HT1A receptor subtype (5-HT1A receptor subtype) | activity at alpha-adrenergic receptors [4] | affinity for 5-HTIE receptor subtype (5-HTIE receptor subtype) | activity at histaminergic receptors (histaminergic receptors) | affinity for 5-HT1D receptors [5] | activity at benzodiazepine receptors (benzodiazepine receptors) | activity at dopaminergic receptors (dopaminergic receptors) | affinity for 5-HT7 receptor (5-HT7 receptor) | activity at 5-HT2 receptors (5-HT2 receptors) | Compound | bioavailability [1] |
| --- | --- | --- | --- | --- | --- | --- | --- | --- | --- | --- | --- | --- | --- | --- | --- |
|  |  |  |  |  |  |  |  |  |  |  |  |  |  | CO/N=C(\C(=O)N[C@@H]1C(=O)N2C(C(=O)OC(C)OC(C)=O)=C(COC(N)=O)CS[C@H]12)c1ccco1 (stereo partly drawn) [cefuroxime axietil] | much higher bioavailability than the crystalline forms |
| weak affinity | no significant activity | high affinity | no significant activity | no significant activity | weak affinity | no significant activity | weak affinity | no significant activity | high affinity | no significant activity | no significant activity | weak affinity | no significant activity | CN(C)CCc1c[nH]c2ccc(Cn3cncn3)cc12 [Rizatriptan] |  |
